Laboratory results: patent publication US20260317344A1, “EGFR INHIBITORS FOR TREATING DISEASE” (BLOSSOMHILL THERAPEUTICS, INC., priority 2023, published 2026)

Columns and labels:
HCC827 cells = experiment: 5-Day CellTiter Glo (CTG) cell proliferation assay, HCC827; assay type: cell-based; conditions: Homo sapiens; HCC827 cells (d746-750 EGFR), 5-day CTG proliferation, 120 hours; read-out: HCC827 IC50
Protocol: (§1) 5-Day CellTiter Glo (CTG) Cell Proliferation Assays (PC9, H1975, H827)
(§2) Cell proliferation assays were carried out in NSCLC cells with EGFR activation mutations. Both PC-9 cells and HCC827 cells (purchased from DSMZ) carry a Glu746-Ala750 deletion (d746-750) mutation in exon 19 of the EGFR gene and NCI-H1975 cells carry both L858R activation mutation and T790M gatekeeper mutation in the EGFR gene. One thousand PC-9, NCI-H1975 or HCC827 cells/100 μL per well were seeded in 96-well black plate with transparent bottom and then treated with indicated compounds in a 9-dose dilution series dispensed using TECAN d300e liquid dispenser. Cells were incubated with compounds for 120 hours at 37° C. and 5% CO2. Cell proliferation was measured using CellTiter-Glo 2.0 luciferase-based ATP detection assay (Promega, Madison, WI) at […] per well following the manufacturer's protocol. Plates were then read on a TECAN Sparks multimode microplate reader. Data was analyzed using GraphPad Prism 9 (GraphPad Software, San Diego, CA) to obtain IC50 values.

EGFR (D746-750/C797S) = EGFR (D746-750/C797S) (Homo sapiens, UniProt P00533, C797S/DEL746-750); experiment: HotSpot radiometric kinase assay, inhibition of EGFR 746-750/C797S mutant; assay type: biochemical; conditions: 33P ATP, room temperature, 120 m
Protocol: (§3) Biochemical Assays for inhibition of wild-type and mutant EGFRs
(§4) Briefly, specific kinase/substrate pairs along with required cofactors were prepared in reaction buffer; 20 mM HEPES pH 7.5, 10 mM […], 1 mM EGTA, 0.02% Brij35, 0.02 mg/ml BSA, 0.1 mM Na3VO4, 2 mM DTT, 1% DMSO. Compounds were delivered into the reaction, followed ~20 minutes later by addition of a mixture of ATP (Sigma, St. Louis MO) and ^33P ATP (Perkin Elmer, Waltham MA) to a final concentration of […]. Reactions were carried out at room temperature for 120 m, followed by spotting of the reactions onto P81 ion exchange filter paper (Whatman Inc., Piscataway, NJ). Unbound phosphate was removed by extensive washing of filters in 0.75% phosphoric acid. […] IC50 values and curve fits were obtained using Prism (GraphPad Software).

EGFR (D770_N771insNPG) = EGFR (D770_N771insNPG) (Homo sapiens, UniProt P00533, INS770NPG); experiment: HotSpot radiometric kinase assay, inhibition of EGFR (D770_N771insNPG) mutant; assay type: biochemical; conditions: 33P ATP, room temperature, 120 m
Protocol: as §3, §4

NCI-H1975 cells = experiment: 5-Day CellTiter Glo (CTG) cell proliferation assay, NCI-H1975; assay type: cell-based; conditions: Homo sapiens; NCI-H1975 cells (L858R/T790M EGFR), 5-day CTG proliferation, 120 hours; read-out: H1975 IC50
Protocol: as §1, §2

[1] = biological target: T1, pEGFR, A431 cells (wildtype EGFR) (Homo sapiens, UniProt P00533); experiment: Cellular EGFR phosphorylation assay (LANCE Ultra TR-FRET) in A431 cells; assay type: cell-based; conditions: 4 hours at 37° C., 40 ng/mL EGF for the final 10 minutes, read-out: A431 pEGFR IC50
T1 construct: pEGFR (Tyr1068) TR-FRET
Protocol: (§5) Cellular EGFR Phosphorylation Assays
(§6) EGFR phosphorylation assays were conducted in NSCLC cells with EGFR activation mutations. PC-9 cells (purchased from Aldrich-Sigma) carry a Glu746-Ala750 deletion (d746-750) mutation in exon 19 of the EGFR gene and NCI-H1975 cells (purchased from ATCC) carry both L858R activation mutation and T790M gatekeeper mutation in the EGFR gene. A431 cells (purchased from ATCC) with amplification of wildtype EGFR, derived from epidermoid carcinoma, were used to measure the activity against wildtype EGFR. All cells were seeded in 96-well plates. For PC-9 and NCI-H1975 cells, 50 thousand cells were seeded per well. For A431 cells, 30 thousand cells were seeded per well. The next day, cells were exposed to compound for 4 hours at 37° C. and 5% CO2. Compounds were diluted in DMSO and added to cells in a 9-dose, 3-fold dilution, titration curve using TECAN d300e liquid dispenser. For A431 cells, 40 ng/mL of EGF was added to the media for the final 10 minutes of incubation. EGFR phosphorylation was measured using phospho-EGFR (Try1068) LANCE Ultra TR-FRET Detection Kit (TRF4015M) from PerkinElmer according to manufacturer's instructions. In brief, cells were lysed with 40 μL of lysis buffer plus 1× Halt protease and phosphatase inhibitor cocktail (Thermo 78441) and by incubation at room temperature for 1 h on a microplate shaker (350 rpm). 15 μ L of cell lysate was transferred to 384-well white plate and 5 μL of Europium- and ULight-labeled antibodies diluted in 1× detection buffer was added to each well. After 4-6 hours of incubation at room temperature, plates were then read on a TECAN Sparks multimode microplate reader. Data was analyzed using GraphPad Prism 9 (GraphPad Software, San Diego, CA) to obtain IC50 values.

EGFR (L858R/T790M/C797S) = EGFR (L858R/T790M/C797S) (Homo sapiens, UniProt P00533, C797S/L858R/T790M); experiment: HotSpot radiometric kinase assay, inhibition of EGFR L858R/T790M/C797S mutant; assay type: biochemical; conditions: 33P ATP, room temperature, 120 m
Protocol: as §3, §4

EGFR (D746-750) = EGFR (D746-750) (Homo sapiens, UniProt P00533, DEL746-750); experiment: HotSpot radiometric kinase assay, inhibition of EGFR 746-750 mutant; assay type: biochemical; conditions: 33P ATP, room temperature, 120 m
Protocol: as §3, §4

[2] = biological target: T2, pEGFR, NCI-H1975 cells (L858R/T790M EGFR) (Homo sapiens, UniProt P00533, L858R/T790M); experiment: Cellular EGFR phosphorylation assay (LANCE Ultra TR-FRET) in NCI-H1975 cells; assay type: cell-based; conditions: 4 hours at 37° C., read-out: H1975 pEGFR IC50
T2 construct: pEGFR (Tyr1068) TR-FRET
Protocol: as §5, §6

[3] = biological target: T3, pEGFR, PC-9 cells (d746-750 EGFR) (Homo sapiens, UniProt P00533, DEL746-750); experiment: Cellular EGFR phosphorylation assay (LANCE Ultra TR-FRET) in PC-9 cells; assay type: cell-based; conditions: 4 hours at 37° C., read-out: PC-9 pEGFR IC50
T3 construct: pEGFR (Tyr1068) TR-FRET
Protocol: as §5, §6

PC-9 cells = experiment: 5-Day CellTiter Glo (CTG) cell proliferation assay, PC-9; assay type: cell-based; conditions: Homo sapiens; PC-9 cells (d746-750 EGFR), 5-day CTG proliferation, 120 hours; read-out: PC-9 IC50
Protocol: as §1, §2

EGFR (D770_N771insNPG), sequence (P00533 with tags, fused parts or gaps INS770NPG limits assumed): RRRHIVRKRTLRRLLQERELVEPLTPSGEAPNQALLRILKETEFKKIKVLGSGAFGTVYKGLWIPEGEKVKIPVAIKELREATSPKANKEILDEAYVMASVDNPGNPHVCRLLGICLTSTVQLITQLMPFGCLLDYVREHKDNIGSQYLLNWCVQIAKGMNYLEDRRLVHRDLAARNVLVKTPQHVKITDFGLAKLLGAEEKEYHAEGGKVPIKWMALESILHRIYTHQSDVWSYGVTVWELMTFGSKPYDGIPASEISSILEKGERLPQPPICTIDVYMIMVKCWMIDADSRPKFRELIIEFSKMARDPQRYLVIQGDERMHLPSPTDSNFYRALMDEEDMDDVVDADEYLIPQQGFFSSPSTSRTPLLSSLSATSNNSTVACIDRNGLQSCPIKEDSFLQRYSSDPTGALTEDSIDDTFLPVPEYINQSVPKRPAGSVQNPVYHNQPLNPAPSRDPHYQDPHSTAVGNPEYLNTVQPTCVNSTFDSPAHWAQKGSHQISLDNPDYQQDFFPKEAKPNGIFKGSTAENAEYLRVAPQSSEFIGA
EGFR (L858R/T790M/C797S), sequence (P00533 25-1210 T790M/C797S/L858R): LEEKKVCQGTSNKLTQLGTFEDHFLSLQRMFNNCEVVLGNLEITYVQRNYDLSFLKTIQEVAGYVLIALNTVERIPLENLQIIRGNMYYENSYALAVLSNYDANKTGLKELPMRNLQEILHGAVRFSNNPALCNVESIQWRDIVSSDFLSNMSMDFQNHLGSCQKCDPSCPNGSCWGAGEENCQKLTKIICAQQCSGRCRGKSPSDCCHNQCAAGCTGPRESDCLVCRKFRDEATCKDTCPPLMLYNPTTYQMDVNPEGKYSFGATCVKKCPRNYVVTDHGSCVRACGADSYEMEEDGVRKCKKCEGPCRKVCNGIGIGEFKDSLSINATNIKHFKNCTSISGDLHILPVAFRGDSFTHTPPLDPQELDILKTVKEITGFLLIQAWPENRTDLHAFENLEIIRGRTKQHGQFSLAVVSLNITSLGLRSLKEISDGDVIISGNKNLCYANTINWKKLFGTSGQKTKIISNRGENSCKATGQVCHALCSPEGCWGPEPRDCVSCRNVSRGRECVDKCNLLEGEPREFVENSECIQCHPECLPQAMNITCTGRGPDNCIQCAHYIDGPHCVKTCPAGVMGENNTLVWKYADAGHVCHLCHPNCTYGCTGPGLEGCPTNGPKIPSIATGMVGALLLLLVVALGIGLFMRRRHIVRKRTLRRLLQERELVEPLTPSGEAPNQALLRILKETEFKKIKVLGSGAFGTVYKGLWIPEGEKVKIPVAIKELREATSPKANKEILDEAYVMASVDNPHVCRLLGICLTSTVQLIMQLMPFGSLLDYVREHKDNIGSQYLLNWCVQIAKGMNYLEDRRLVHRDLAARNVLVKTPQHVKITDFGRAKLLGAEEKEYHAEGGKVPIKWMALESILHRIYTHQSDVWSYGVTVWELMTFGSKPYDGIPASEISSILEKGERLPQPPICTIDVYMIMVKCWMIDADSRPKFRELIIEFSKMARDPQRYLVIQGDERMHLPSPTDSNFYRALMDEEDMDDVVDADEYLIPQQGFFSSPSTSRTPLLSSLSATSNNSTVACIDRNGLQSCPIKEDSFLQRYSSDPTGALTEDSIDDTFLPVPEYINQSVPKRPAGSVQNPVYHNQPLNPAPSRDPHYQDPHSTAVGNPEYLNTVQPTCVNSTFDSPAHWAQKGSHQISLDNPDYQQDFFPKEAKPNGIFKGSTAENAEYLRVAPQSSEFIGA
EGFR (D746-750), sequence (P00533 with tags, fused parts or gaps DEL746-750): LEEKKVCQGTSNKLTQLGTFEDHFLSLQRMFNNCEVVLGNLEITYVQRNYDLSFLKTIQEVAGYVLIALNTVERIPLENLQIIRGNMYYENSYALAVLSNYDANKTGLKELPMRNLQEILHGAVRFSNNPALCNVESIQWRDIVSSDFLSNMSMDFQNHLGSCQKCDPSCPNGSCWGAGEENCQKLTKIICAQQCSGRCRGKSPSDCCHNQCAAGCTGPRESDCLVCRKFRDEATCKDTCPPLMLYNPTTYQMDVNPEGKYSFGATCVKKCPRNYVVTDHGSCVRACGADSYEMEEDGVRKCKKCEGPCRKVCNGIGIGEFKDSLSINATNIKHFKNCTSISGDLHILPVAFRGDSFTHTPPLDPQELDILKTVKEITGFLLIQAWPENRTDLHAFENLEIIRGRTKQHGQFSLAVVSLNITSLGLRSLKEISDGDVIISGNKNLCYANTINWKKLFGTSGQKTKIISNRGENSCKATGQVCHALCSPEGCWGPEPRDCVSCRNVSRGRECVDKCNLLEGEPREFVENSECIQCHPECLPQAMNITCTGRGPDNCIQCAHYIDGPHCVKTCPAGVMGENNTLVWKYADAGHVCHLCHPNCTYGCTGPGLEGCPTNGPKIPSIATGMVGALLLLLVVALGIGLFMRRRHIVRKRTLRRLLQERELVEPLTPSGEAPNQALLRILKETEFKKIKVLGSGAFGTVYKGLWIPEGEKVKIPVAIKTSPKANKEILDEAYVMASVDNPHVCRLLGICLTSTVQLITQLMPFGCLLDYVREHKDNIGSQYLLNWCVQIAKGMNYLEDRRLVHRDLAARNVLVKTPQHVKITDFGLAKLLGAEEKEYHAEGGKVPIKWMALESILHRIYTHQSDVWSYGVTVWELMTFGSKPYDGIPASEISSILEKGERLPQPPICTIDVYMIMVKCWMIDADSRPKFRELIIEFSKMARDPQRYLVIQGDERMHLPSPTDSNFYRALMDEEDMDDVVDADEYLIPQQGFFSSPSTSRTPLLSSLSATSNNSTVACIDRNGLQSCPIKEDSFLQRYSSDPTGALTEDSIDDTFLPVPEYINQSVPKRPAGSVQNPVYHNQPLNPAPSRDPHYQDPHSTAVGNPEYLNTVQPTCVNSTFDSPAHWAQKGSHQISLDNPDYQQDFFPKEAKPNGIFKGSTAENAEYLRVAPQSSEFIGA
EGFR (D746-750/C797S), sequence (P00533 with tags, fused parts or gaps DEL746-750/C797S): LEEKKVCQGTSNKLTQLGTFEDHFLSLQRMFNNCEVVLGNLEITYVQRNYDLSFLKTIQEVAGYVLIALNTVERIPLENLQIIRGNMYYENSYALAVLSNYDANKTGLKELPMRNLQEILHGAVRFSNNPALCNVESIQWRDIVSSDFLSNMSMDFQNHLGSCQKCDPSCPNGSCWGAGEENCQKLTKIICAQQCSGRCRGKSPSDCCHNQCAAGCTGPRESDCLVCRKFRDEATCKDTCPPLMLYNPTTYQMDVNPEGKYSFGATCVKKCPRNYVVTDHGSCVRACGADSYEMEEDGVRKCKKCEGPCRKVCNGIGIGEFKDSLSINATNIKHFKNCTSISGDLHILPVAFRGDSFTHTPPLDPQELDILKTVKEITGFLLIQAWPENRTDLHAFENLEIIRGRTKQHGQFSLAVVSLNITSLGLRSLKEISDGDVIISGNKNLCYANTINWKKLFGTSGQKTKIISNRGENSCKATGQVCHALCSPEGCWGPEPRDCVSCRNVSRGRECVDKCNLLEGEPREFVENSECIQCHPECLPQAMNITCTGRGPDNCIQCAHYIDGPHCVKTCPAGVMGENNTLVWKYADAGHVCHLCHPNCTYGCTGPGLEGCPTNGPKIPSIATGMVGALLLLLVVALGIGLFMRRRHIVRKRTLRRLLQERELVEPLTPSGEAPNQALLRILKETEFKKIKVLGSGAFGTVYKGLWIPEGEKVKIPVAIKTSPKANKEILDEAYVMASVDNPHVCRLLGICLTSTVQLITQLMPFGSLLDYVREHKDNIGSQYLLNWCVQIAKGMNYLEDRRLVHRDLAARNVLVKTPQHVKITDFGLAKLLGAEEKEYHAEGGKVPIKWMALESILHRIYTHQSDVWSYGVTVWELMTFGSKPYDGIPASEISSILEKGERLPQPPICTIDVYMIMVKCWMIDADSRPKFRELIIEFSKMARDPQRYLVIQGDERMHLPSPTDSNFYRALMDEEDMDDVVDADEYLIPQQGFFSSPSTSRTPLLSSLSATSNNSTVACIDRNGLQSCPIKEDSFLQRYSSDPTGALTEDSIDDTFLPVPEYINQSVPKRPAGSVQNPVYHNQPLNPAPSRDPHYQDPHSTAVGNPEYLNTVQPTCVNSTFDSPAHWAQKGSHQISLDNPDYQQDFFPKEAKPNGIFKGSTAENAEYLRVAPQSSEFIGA

Structure (SMILES)	IC50 (HCC827 cells)	IC50 (EGFR (D746-750/C797S))	IC50 (EGFR (D770_N771insNPG))	IC50 (NCI-H1975 cells)	IC50 [1]	IC50 (EGFR (L858R/T790M/C797S))	IC50 (EGFR (D746-750))	IC50 [2]	IC50 [3]	IC50 (PC-9 cells)
CCc1nn([C@@H](C)CO)c2c1/C=C/c1n[nH]c3cnc(cc13)-c1c(C)nn(C)c1O[C@@H](C)CN(C)C2 [Ex. 61, (2S)-2-[(10S,17E)-16-ethyl-6,8,10,12-tetramethyl-2,8,10,11,12,13-hexahydro-14H-5,3-(azenometheno)tripyrazolo[3,4-f:3′,4′-j:4″,3″-n][1,4]oxazacyclopentadecin-14-yl]propan-1-ol]	0.66 nM	1.05 nM	0.7 nM	74.7 nM	21 nM	0.91 nM	0.43 nM	2.05 nM	1.68 nM	3.55 nM
Cc1nn([C@@H](C)CO)c2c1/C=C/c1n[nH]c3cnc(cc13)-c1c(C)nn(C)c1O[C@@H](C)CN(C)C2 [Ex. 46, (2S)-2-[(10S,17E)-6,8,10,12,16-pentamethyl-2,8,10,11,12,13-hexahydro-14H-5,3-(azenometheno)tripyrazolo[3,4-f:3′,4′-j:4″,3″-n][1,4]oxazacyclopentadecin-14-yl]propan-1-ol]	–	0.4 nM	0.36 nM	–	–	0.23 nM	0.15 nM	–	–	–
CCOc1nn(CCO)c2c1/C=C/c1n[nH]c3cnc(cc13)-c1c(c(C)nn1C)OCCN(C)C2 [Ex. 69, 2-[(17E)-16-ethoxy-6,8,12-trimethyl-2,6,10,11,12,13-hexahydro-14H-5,3-(azenometheno)tripyrazolo[3,4-f:3′,4′-j:3″,4″-n][1,4]oxazacyclopentadecin-14-yl]ethan-1-ol]	41.9 nM	3.68 nM	15.3 nM	308 nM	160 nM	1.93 nM	1.87 nM	262 nM	75.4 nM	92 nM
CCc1nn(CCO)c2c1/C=C/c1n[nH]c3cnc(cc13)-c1c(C)nn(C)c1O[C@H](C)CN(CC)C2 [Ex. 55, 2-[(10R,17E)-12,16-diethyl-6,8,10-trimethyl-2,8,10,11,12,13-hexahydro-14H-5,3-(azenometheno)tripyrazolo[3,4-f:3′,4′-j:4″,3″-n][1,4]oxazacyclopentadecin-14-yl]ethan-1-ol]	–	0.72 nM	1.38 nM	–	–	0.53 nM	0.25 nM	–	–	–
Cc1nn(C)c2c1-c1cc3c(n[nH]c3cn1)/C=C/c1c(OCC#N)nn(CCO)c1CN(C)[C@H](C)CO2 [Ex. 49, {[(11R,17E)-14-(2-hydroxyethyl)-6,8,11,12-tetramethyl-2,10,11,12,13,14-hexahydro-8H-5,3-(azenometheno)tripyrazolo[3,4-f:3′,4′-j:4″,3″-n][1,4]oxazacyclopentadecin-16-yl]oxy}acetonitrile]	–	0.34 nM	0.19 nM	–	–	0.21 nM	0.12 nM	–	–	–
CCN1CCOc2c(c(C)nn2C)-c2cc3c(n[nH]c3cn2)/C=C/c2c(OCC#N)nn([C@@H](C)CO)c2C1 [Ex. 66, {[(17E)-12-ethyl-4-[(2S)-1-hydroxypropan-2-yl]-6,8-dimethyl-2,10,11,12,13,14-hexahydro-8H-5,3-(azenometheno)tripyrazolo[3,4-f:3′,4′-j:4″,3″-n][1,4]oxazacyclopentadecin-16-yl]oxy}acetonitrile]	–	1.04 nM	0.42 nM	–	–	0.54 nM	0.36 nM	–	–	–
CCOc1nn(CCO)c2c1/C=C/c1n[nH]c3c(C)nc(cc13)-c1cnn(C)c1O[C@H](C)CN(CC)C2 [Ex. 37, 2-[(10R,17E)-16-ethoxy-12-ethyl-8,10,20-trimethyl-2,8,10,11,12,13-hexahydro-14H-5,3-(azenometheno)tripyrazolo[3,4-f:3′,4′-j:4″,3″-n][1,4]oxazacyclopentadecin-14-yl]ethan-1-ol]	–	0.79 nM	1.62 nM	–	–	0.71 nM	0.31 nM	–	–	–
Cc1nn(C)c2c1-c1cc3c(n[nH]c3c(C)n1)/C=C/c1c(OCC#N)nn([C@@H](C)CO)c1CN(C)C[C@H](C)O2 [Ex. 52]	–	0.71 nM	0.25 nM	–	–	0.46 nM	0.21 nM	–	–	–
Cc1nn(CCO)c2c1/C=C/c1n[nH]c3c(C)nc(cc13)-c1cnn(C)c1O[C@@H](C)CN(C)C2 [Ex. 51, 2-[(10S,17E)-8,10,12,16,20-pentamethyl-2,8,10,11,12,13-hexahydro-14H-5,3-(azenometheno)tripyrazolo[3,4-f:3′,4′-j:4″,3″-n][1,4]oxazacyclopentadecin-14-yl]ethan-1-ol]	–	0.83 nM	1.11 nM	–	–	0.37 nM	0.31 nM	–	–	–
CCOc1nn(CCO)c2c1/C=C/c1n[nH]c3cnc(cc13)-c1cnn(C)c1O[C@@H](C)CN(CC)C2 [Ex. 34, 2-[(10S,17E)-16-ethoxy-12-ethyl-8,10-dimethyl-2,8,10,11,12,13-hexahydro-14H-5,3-(azenometheno)tripyrazolo[3,4-f:3′,4′-j:4″,3″-n][1,4]oxazacyclopentadecin-14-yl]ethan-1-ol]	0.39 nM	0.31 nM	0.11 nM	1.75 nM	–	0.28 nM	0.12 nM	–	–	4.22 nM
